Source: ChEMBL document CHEMBL1141036, “2-Alkyl-3-(1,2,3,6-tetrahydropyridin-4-yl)-1H-indoles as novel 5-HT6 receptor agonists” (Bioorg Med Chem Lett, 2005)

Assays:
[1] = biological target: T1, 5-hydroxytryptamine receptor 6 (Homo sapiens, UniProt P50406); assay: Displacement of [3H]LSD binding to cloned human 5-hydroxytryptamine 6 receptor expressed in HEK cells; type: cell-based, HEK293
[2] = Concentration to stimulate the cAMP production in BHK cells; type: functional, cell-based; conditions: Homo sapiens
[3] = biological target: T1, 5-hydroxytryptamine receptor 6; assay: Intrinsic activity (IA) at the 5-HT6 receptor determined by measuring their cAMP production in BHK cells and compared to the effect elicited by 5-HT; type: functional, cell-based; conditions: Mesocricetus auratus
[4] = biological target: T1, 5-hydroxytryptamine receptor 6; assay: Displacement of [3H]LSD binding to cloned h5-HT6 receptors stably expressed in HEK cells; type: cell-based, HEK293
[5] = biological target: T1, 5-hydroxytryptamine receptor 6; assay: Displacement of [3H]LSD binding to cloned human 5-hydroxytryptamine 6 receptor stably expressed in HEK cells; type: cell-based, HEK293
[6] = biological target: T2, 5-hydroxytryptamine receptor 1A (Rattus norvegicus, UniProt P19327); assay: Inhibitory activity against 5-hydroxytryptamine 1A receptor in rat
T2 sequence (P19327 whole entry): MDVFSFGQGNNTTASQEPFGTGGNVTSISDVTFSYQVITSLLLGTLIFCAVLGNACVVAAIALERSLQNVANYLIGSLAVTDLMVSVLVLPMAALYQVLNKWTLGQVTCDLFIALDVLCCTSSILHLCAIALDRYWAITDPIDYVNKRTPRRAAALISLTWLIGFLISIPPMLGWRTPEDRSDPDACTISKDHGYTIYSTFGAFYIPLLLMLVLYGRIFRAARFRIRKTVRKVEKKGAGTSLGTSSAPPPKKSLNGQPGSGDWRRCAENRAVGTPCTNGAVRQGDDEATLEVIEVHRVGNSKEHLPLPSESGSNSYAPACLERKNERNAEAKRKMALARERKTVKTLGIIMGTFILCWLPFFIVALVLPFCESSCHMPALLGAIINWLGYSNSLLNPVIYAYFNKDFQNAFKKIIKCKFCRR

[7] = biological target: 5-hydroxytryptamine receptor 1B (Rattus norvegicus, UniProt P28564); assay: Inhibitory activity against 5-hydroxytryptamine 1B receptor in rat
Sequence of 5-hydroxytryptamine receptor 1B (P28564 whole entry): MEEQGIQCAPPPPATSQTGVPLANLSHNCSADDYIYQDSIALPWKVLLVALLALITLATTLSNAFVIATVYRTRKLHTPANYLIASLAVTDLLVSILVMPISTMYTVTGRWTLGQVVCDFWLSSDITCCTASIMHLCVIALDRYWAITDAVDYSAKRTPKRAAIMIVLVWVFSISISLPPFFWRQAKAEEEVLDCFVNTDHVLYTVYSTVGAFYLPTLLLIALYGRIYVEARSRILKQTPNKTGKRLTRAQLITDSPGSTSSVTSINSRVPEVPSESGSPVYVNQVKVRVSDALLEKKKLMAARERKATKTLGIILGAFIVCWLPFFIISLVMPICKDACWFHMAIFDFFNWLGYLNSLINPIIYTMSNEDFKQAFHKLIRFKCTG

[8] = biological target: T1, 5-hydroxytryptamine receptor 6; assay: Inhibitory activity against 5-hydroxytryptamine 6 receptor in human
[9] = biological target: 5-hydroxytryptamine receptor 7 (Homo sapiens, UniProt P34969); assay: Inhibitory activity against 5-hydroxytryptamine 7 receptor in human
Sequence of 5-hydroxytryptamine receptor 7 (P34969 whole entry): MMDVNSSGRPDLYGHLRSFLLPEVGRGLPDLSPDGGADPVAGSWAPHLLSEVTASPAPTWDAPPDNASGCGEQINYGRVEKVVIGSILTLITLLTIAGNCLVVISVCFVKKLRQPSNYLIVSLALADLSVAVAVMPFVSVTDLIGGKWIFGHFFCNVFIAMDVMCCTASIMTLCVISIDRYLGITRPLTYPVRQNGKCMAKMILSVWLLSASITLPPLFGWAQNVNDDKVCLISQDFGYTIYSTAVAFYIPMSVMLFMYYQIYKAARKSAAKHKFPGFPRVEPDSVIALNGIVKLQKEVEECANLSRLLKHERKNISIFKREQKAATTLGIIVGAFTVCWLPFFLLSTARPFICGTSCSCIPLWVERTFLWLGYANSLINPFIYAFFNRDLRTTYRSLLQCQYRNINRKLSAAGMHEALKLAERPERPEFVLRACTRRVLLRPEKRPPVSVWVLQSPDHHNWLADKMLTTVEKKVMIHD

[10] = biological target: 5-hydroxytryptamine receptor 2A (Homo sapiens, UniProt P28223); assay: Inhibitory activity against 5-hydroxytryptamine 2A receptor in human
Sequence of 5-hydroxytryptamine receptor 2A (P28223 whole entry): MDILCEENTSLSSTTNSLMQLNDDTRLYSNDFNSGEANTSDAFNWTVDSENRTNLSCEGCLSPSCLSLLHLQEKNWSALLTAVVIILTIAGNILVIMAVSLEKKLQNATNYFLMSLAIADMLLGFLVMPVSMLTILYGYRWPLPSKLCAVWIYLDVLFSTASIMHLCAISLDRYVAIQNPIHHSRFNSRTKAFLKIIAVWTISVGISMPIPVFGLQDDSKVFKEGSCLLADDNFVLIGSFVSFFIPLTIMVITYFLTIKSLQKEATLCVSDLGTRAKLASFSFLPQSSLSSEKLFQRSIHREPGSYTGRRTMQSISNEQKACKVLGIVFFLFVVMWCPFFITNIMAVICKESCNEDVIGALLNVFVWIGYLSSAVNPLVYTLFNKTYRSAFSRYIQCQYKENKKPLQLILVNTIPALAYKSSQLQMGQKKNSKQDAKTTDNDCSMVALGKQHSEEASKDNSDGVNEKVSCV

[11] = biological target: 5-hydroxytryptamine receptor 4 (Cavia porcellus, UniProt O70528); assay: Inhibitory activity against 5-hydroxytryptamine 4 receptor in guinea pig
Sequence of 5-hydroxytryptamine receptor 4 (O70528 whole entry): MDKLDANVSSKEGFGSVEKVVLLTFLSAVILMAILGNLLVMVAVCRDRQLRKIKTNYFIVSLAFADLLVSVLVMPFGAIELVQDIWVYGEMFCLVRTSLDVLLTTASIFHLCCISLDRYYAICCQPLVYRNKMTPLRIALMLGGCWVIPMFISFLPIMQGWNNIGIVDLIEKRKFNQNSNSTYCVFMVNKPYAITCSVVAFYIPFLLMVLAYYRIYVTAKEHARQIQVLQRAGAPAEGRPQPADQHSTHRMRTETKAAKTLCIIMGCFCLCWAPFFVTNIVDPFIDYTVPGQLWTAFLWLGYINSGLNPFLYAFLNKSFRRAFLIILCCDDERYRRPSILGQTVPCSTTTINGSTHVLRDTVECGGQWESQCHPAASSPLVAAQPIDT

[12] = biological target: 5-hydroxytryptamine receptor 3A (Mus musculus) (UniProt P23979); assay: Inhibitory activity against 5-hydroxytryptamine 3 receptor expressed in NG 108 cells
Sequence of 5-hydroxytryptamine receptor 3A (Mus musculus) (P23979 whole entry, looked up): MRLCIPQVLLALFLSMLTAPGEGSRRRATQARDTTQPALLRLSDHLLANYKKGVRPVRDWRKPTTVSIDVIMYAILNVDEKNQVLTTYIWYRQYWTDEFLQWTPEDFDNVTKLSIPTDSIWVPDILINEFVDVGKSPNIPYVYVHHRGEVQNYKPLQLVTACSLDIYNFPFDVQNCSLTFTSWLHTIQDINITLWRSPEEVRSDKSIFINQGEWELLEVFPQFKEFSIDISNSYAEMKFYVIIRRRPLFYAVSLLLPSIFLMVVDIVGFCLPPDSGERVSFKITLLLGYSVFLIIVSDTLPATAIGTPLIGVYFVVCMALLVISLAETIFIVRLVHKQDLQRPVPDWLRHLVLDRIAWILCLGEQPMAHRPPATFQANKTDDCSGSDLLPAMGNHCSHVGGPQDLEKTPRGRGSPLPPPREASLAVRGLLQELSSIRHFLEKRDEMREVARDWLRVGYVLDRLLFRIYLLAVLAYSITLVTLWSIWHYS

[13] = biological target: T3, 5-hydroxytryptamine receptor 2C (Homo sapiens, UniProt P28335); assay: Inhibitory activity against 5-hydroxytryptamine 2C receptor in human
T3 sequence (P28335 whole entry): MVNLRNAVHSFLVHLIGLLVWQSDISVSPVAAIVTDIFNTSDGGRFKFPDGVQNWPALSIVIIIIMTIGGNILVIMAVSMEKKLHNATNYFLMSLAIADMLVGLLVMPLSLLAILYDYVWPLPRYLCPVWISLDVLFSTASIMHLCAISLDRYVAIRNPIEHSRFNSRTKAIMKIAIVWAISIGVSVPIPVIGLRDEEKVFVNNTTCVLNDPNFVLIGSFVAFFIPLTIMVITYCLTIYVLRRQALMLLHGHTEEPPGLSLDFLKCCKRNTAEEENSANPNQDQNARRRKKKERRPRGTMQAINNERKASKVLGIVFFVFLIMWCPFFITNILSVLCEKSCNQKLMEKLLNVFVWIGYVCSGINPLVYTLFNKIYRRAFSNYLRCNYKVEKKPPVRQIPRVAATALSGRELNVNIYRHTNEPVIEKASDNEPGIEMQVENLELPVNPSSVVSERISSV

T1 sequence (P50406 whole entry): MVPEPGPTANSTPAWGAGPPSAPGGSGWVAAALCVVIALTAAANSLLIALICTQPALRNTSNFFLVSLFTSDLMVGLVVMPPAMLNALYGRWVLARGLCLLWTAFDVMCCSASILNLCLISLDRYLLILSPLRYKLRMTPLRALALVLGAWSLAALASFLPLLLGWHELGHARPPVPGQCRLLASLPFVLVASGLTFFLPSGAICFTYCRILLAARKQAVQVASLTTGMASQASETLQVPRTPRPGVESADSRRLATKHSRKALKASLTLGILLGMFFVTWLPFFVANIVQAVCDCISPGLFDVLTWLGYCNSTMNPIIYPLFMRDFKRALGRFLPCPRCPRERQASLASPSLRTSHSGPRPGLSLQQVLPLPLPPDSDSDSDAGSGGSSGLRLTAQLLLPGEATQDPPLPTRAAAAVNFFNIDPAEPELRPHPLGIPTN

Structure (SMILES) | IC50 [1] [nM] | EC50 [2] [nM] | IA [3] [%] | further results
Cc1[nH]c2ccc(Cl)cc2c1C1=CC2CCC(C1)N2C (stereo not given) | 40 | 10000 | 75 | –
CCCc1[nH]c2ccc(Cl)cc2c1C1=CCNCC1 | 40 | – | – | –
CCCCN1CC=C(c2c(C)[nH]c3ccc(Cl)cc23)CC1 | 50 | – | – | –
CCN1CC=C(c2c(C)[nH]c3ccc(Cl)cc23)CC1 | 30 | – | – | –
CCc1[nH]c2ccc(Cl)cc2c1C1=CCNCC1 | 30 | – | – | –
CCc1[nH]c2ccc(Cl)cc2c1C1=CCN(CC)CC1 | 70 | – | – | –
CCc1[nH]c2ccc(OC)cc2c1C1=CCNCC1 | – | 7.9 | 100 | IC50 [4]: 90 nM
C1=C(c2c(-c3ccccc3)[nH]c3ccccc23)CCNC1 | 2 | – | – | –
COc1ccc2[nH]cc(C3=CCNCC3)c2c1 [RU-24969] | 79 | 200 | 55 | –
CCCN1CC=C(c2c(C)[nH]c3ccc(Cl)cc23)CC1 | 60 | – | – | –
Cc1[nH]c2ccc(Cl)cc2c1C1=CCN(C)CC1 | 10 | 2.9 | 152 | –
CCc1[nH]c2ccc(OC)cc2c1C1CCNCC1 | – | – | – | IC50 [4]: 300 nM
CCc1[nH]c2ccc(OC)cc2c1CCN(C)C | – | 710 | 113 | IC50 [5]: 85 nM; IC50 [6]: > 1000 nM; IC50 [7]: > 1000 nM; IC50 [8]: 85 nM; IC50 [9]: 1500 nM; IC50 [10]: 620 nM; IC50 [11]: 44 nM; IC50 [12]: > 1000 nM
Cc1[nH]c2ccc(Cl)cc2c1C1=CCN(Cc2ccccc2)CC1 | 600 | – | – | –
Cc1[nH]c2ccc(Cl)cc2c1CCN(C)C | 40 | 16 | 53 | –
COc1ccc2[nH]c(C)c(C3=CCNCC3)c2c1 | 80 | 5.8 | 100 | IC50 [6]: 430 nM; IC50 [7]: 310 nM; IC50 [8]: 80 nM; IC50 [9]: 9800 nM; IC50 [10]: > 1000 nM; IC50 [13]: > 1000 nM; IC50 [11]: 9800 nM; IC50 [12]: > 1000 nM
Cc1[nH]c2ccc(Cl)cc2c1C1=CCNCC1 | – | 1 | 92 | IC50 [6]: 660 nM; IC50 [7]: 180 nM; IC50 [9]: 3000 nM; IC50 [10]: 240 nM; IC50 [13]: 450 nM; IC50 [11]: 620 nM; IC50 [12]: 34 nM
CC(C)c1[nH]c2ccc(Cl)cc2c1C1=CCNCC1 | 100 | – | – | –
